Assay results reported in US12605439B2 (priority 2017, dated 2026).

What was measured:
[1] = system: LK^b cells; type: cell-based
[2] = system: SIIN specific T cell; type: cell-based

Q: What does the source list for “QLE SIINFEKL TEW (QLESIINFEKLTEW; OVA peptide used in the Examples) [Ext SIIN, extended model ovalbumin peptide with three flanking residues at both termini]”?
A: presentation of CD8 epitope compared to free peptide loading [1]: lower; activation of T cells compared to free peptide [2]: equivalent
